The text below walks through data of article PMC4745926, “Absorption, Metabolism, and Excretion by Freely Moving Rats of 3,4-DHPEA-EDA and Related Polyphenols from Olive Fruits (Olea europaea)” (Journal of Nutrition and Metabolism, 2016).

This data set is described as follows: Portal plasma pharmacokinetics after oral administration in portal vein cannulated, freely moving rats. Type of data set: in vivo, Wistar ST rats. Conditions: for AUC: 0→4 h after oral administration, mean ± SEM; for bioavailability: plasma, intact compound, oral versus intravenous administration, read-out: bioavailability for 4 hours. Here is the method:
SPF Wistar ST rats (6 weeks of age, male, 180 ± 20 g of body weight) were purchased from Japan SLC Inc. (Hamamatsu, Japan). The rats were housed in an air-conditioned room at 22 ± 2°C under cycles of 12 hours dark and 12 hours light and given free access to a commercial diet and water for a week. The rats were then fasted for over 16 hours before the experiments. The present study was approved by the Animal Care and Use Committee at Kagawa University, and the rat treatment conformed to the Rules of Animal Experiments at Kagawa University. After fasting, the rats were cannulated with a polyethylene tube (PE-50; 0.58 mm I.D., 0.965 mm O.D.) into the jugular vein, portal vein, or bile duct under anesthesia with isoflurane inhalation using a WP-SAA01 (LMS Co., Ltd., Tokyo, Japan). A small hole was made in the vein or duct using pointed scissors and cannulated with the polyethylene tube. After inserting the tube, it was fixed at the edge of the vein or duct. The jugular vein and portal vein cannulas penetrated under the skin and were then tied at the back of the rats, and the bile duct cannula was tied at the abdomen of the rats. Bile duct-cannulated rats were then restrained in a Bollman cage (Natsume Seisakusho Co., Ltd., Tokyo, Japan). Before further experiments, the rats were allowed to recover from anesthesia. 3,4-[…] (300 mg/kg body weight; 936.51 μmol/kg) dissolved in 50% polyethylene glycol aqueous solution was administered orally via a stomach tube to the portal vein cannulated rats. Blood samples (450 μL) were then collected using a heparinized syringe attached to the cannula before administration and 5, 15, 30, 60, 120, and 240 min after administration. Urine was also collected before administration and 0 to 2 h and 2 to 4 h after administration. For intravenous administration, 3,4-[…] (10 mg/kg; 31.22 μmol/kg) was injected into the jugular vein, and blood (450 μL) was collected using a heparinized syringe before administration and 5, 15, 30, 60, 120, and 240 min after administration via the jugular vein cannula. The blood (450 μL) collected was immediately cooled on ice and centrifuged at 15,000 rpm for 5 min at 4°C to obtain over 200 μL plasma. Urine was also collected before administration and 0 to 2 h and 2 to 4 h after administration. Bile was collected via the bile duct cannula before administration and 0 to 2 h and 2 to 4 h after intravenous administration. The collected plasma, urine, and bile were immediately stored in an ice box until further analyses. HT (oral administration: 100 mg/kg; 648.66 μmol/kg, intravenous administration: 10 mg/kg; 64.87 μmol/kg) and Ole (oral administration: 300 mg/kg; 555.02 μmol/kg, intravenous administration: 10 mg/kg; 18.50 μmol/kg) were investigated using the same method as described above. Metabolites were deconjugated by using β-glucuronidase (500 U) and sulfatase (50 U) in 50 μL 625 mM MOPS (pH 6.8), which was added to 200 μL of plasma, urine, or bile. The mixture was incubated for 45 min at 37°C and subjected to extraction using QuEChERS [33]. […] Shimadzu, Kyoto, Japan) equipped with a Shim-pack XR-ODS column (3.0 mm I.D. × 100 mm; Shimadzu, Kyoto, Japan) at 40°C with a mobile phase of 0.5% TFA-1% acetonitrile aqueous solution (A) and 0.5% TFA-75% acetonitrile aqueous solution (B). The elution conditions are described as follows: isocratic elution of 0% B was maintained for 4.0 min; linear gradient 0 to 4% B, 4.0-4.5 min; linear gradient 4.0-16.0% B, 4.5-16.0 min; linear gradient 16.0-100% B, 16.0-25.0 min; isocratic elution of 100% B, 25.0-26.0 min; and linear gradient 100 to 0% B, 26.0-26.1 min, with a flow rate of 0.5 mL/min. Injection volume was 50 μL. All eluted peaks were detected at 279 nm with a diode array detector (SPD-M20A; Shimadzu, Kyoto, Japan). The absorption of 3,4-[…], and Ole was evaluated by dose-normalized 4 h area under the curve (AUC0→4 h/Dose) and C max/Dose values (Table 2). […]

Setting [1] is: analyte HT in portal plasma after oral administration.
[2] abbreviates: analyte HVA in portal plasma after oral administration.
[3] abbreviates: analyte HVAOH in portal plasma after oral administration.
[4] abbreviates: analyte HT in portal plasma after oral administration, listed as HT.
[5] abbreviates: male, Wistar ST, rat, portal vein plasma, 100 mg/kg, analyte HT in portal plasma after oral administration.
The mark [6] stands for this setting: analyte Ole in portal plasma after oral administration.
[7] abbreviates: male, Wistar ST, rat, 300 mg/kg, analyte Ole in portal plasma after oral administration.

Molecules are shown by their SMILES. Several values for one entry are separate records, joined by “and”; a condition that tells them apart may be missing. Identical values can stand only once. Entries after “also recorded” stand apart in the source; their conditions may differ. Like-named read-outs stand apart in the source and are kept apart here.

The term AUC denotes concentration integrated over time. One may read the Cmax as the peak of the concentration-time curve. As for `CC=C(C=O)C(CC=O)CC(=O)OCCc1ccc(O)c(O)c1` (stereo not drawn) [3,4-DHPEA-EDA, 3,4-dihydroxyphenylethyl elenolate dialdehydic form], the “AUC/Dose (AUC0→4 h-i.g./Dosei.g.)” value is, setting by setting: (Total of detected analytes in portal plasma after oral administration) 36.4 μM·min·kg/μmol and 36.4 ± 5.9 μM·min·kg/μmol; under setting [1], 27.7 μM·min·kg/μmol and 27.7 ± 3.3 μM·min·kg/μmol; under setting [2], 4.5 μM·min·kg/μmol and 4.5 ± 1.8 μM·min·kg/μmol; under setting [3], 4.2 μM·min·kg/μmol and 4.2 ± 0.8 μM·min·kg/μmol. The exposure (AUC) was 34049.5 ± 5539.3 µM·min (Total of detected analytes in portal plasma); 25935.0 ± 3103.1 µM·min (analyte HT in portal plasma, triplicate); 4180.0 ± 1646.5 µM·min (analyte HVA in portal plasma, triplicate); 3934.5 ± 789.7 µM·min (analyte HVAOH in portal plasma, triplicate). Moreover, for the setting “after oral administration, 300 mg/kg, 936.51 μmol/kg, 300 mg/kg”, the “Detection of parent 3,4-DHPEA-EDA in portal plasma” value is reported as “not observed; also recorded: not detected; also recorded: could not detect”. Also, the “C max/Dose” value by setting is: under setting [1], 0.22 μM·kg/μmol; under setting [2], 0.03 μM·kg/μmol and 0.03 ± 0.007 μM·kg/μmol; under setting [3], 0.03 μM·kg/μmol and 0.03 ± 0.002 μM·kg/μmol. The Cmax is, setting by setting: under setting [1], 179 ± 45.3 µM; under setting [2], 21.5 ± 6.9 µM; under setting [3], 22.2 ± 2 µM. For the same compound, the T max by setting is: under setting [1], 30 min; under setting [2], 60 min; under setting [3], 30 min. Further, the “total absorption rate, times less than that of HT” value (total AUC0→4 h-i.g./Dosei.g. including metabolites) stood at 2.2 times. Also, the “ratio of AUC/Dose of 3,4-DHPEA-EDA : HT : Ole” value (total including metabolites in portal plasma after oral administration, Ole = 1) is 13.5.
A word on the bioavailability: it is the share of a dose that reaches the circulation, judged against a reference dose that is usually intravenous. The Tmax is the time from dosing to the highest level. As to `OCCc1ccc(O)c(O)c1` [Hydroxytyrosol, 2-(3,4-dihydroxyphenyl) ethyl alcohol, reference compound], under setting [1], the “AUC/Dose (AUC0→4 h-i.g./Dosei.g.)” value worked out at 51.1 ± 8.5 μM·min·kg/μmol and the “C max/Dose” value worked out at 0.61 ± 0.089 μM·kg/μmol. Besides, under setting [4], the “AUC/Dose (AUC0→4 h-i.g./Dosei.g.)” value is given as 51.1 μM·min·kg/μmol and the “C max/Dose” value worked out at 0.61 μM·kg/μmol. Besides, where the note is “analyte HT in portal plasma after oral administration, listed as hydroxytyrosol”, the “AUC/Dose (AUC0→4 h-i.g./Dosei.g.)” value was 51.1 μM·min·kg/μmol. Also, the bioavailability (male, Wistar ST, rat) was 13.1%. Moreover, under setting [5], the Cmax stood at 395 ± 58 µM and the Tmax was 15 min. In addition, for the setting “male, Wistar ST, rat, portal vein plasma, 100 mg/kg, analyte HT in portal plasma, triplicate, read-out: AUC (converted)”, the area under the curve (AUC) was 33200 µM·min.
In the case of `C/C=C1/[C@H](O[C@@H]2O[C@H](CO)[C@@H](O)[C@H](O)[C@H]2O)OC=C(C(=O)OC)[C@H]1CC(=O)OCCc1ccc(O)c(O)c1` [Oleuropein, reference compound], under setting [6], the “AUC/Dose (AUC0→4 h-i.g./Dosei.g.)” value stood at 1.8 ± 0.4 μM·min·kg/μmol and the “C max/Dose” value is recorded as 0.021 ± 0.006 μM·kg/μmol. In addition, the “AUC/Dose (AUC0→4 h-i.g./Dosei.g.)” value (analyte Ole in portal plasma after oral administration, listed as Ole) turned out to be 1.8 μM·min·kg/μmol. Also, under setting [7], the maximum concentration (Cmax) amounted to 11.9 ± 3.2 µM and the time of peak concentration (Tmax) was 5 min. For the same compound, the area under the curve (AUC) (male, Wistar ST, rat, 300 mg/kg, analyte Ole in portal plasma, triplicate, read-out: AUC (converted)) was 1020 µM·min. The bioavailability (male, Wistar ST, rat) worked out at 0.5%.
